Assay results reported in article PMC3095640, “Potent Host-Directed Small-Molecule Inhibitors of Myxovirus RNA-Dependent RNA-Polymerases” (PLoS ONE, 2011).

System: HeLa cells
Experiment: Flow-cytometric analysis of cell cycle progression
Assay type: cell-based, human
Conditions: JMN3-003 10 µM 36 hours, nocodazole 200 ng/ml
Procedure: Actively proliferating HeLa cells were exposed to JMN3-003 (10 µM), hydroxyurea (4 mM), or nocodazole (200 ng/ml) for 36 hours, followed by resuspension in buffer I (20 mM citrate/PO, pH 3.0, 0.1 mM EDTA, 0.2 M Sucrose, 0.1% Triton X-100) and staining in buffer II (10 mM Citrate/PO, pH 3.8, 0.1 M sodium chloride, 20 µg/ml acridine orange) as described. Green fluorescence at 525 nm resulting from DNA intercalating acridine orange was then measured using a BD LSRII flow cytometer and FlowJo software (Tree Star) for data analysis. For comparison, unstained and stained, solvent-only exposed cells were examined in parallel.

## COc1ccc(-n2c(SC(C)C(=O)Nc3ccc(C)cc3Cl)nc3ccccc32)cc1 (stereo not shown) [JMN3-003]
  DNA content of treated cells by flow cytometry: accumulation of cells in a single population with 2N DNA content
